Results from ChEMBL document CHEMBL1201862, “PubChem BioAssay data set” (2004).
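Where inhibition never reached the appropriate level, the endpoint shown equals the highest concentration tested. Otherwise, values were interpolated linearly from a five-concentration, 48-hour dose response in 96-well plates. GI50 is the concentration that inhibits growth by half.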 Activity calls are given as the source filed them. No stated cut-off is given here; in the data, active = GI50 up to about 1.1 µM and inactive = higher.

Assays:
Experiment in all cases: DTP human tumour cell line panel, 48 h
NCI-H522 = tested on: NCI-H522
SNB-75 = tested on: SNB-75
OVCAR-5 = tested on: OVCAR-5
NCI-H226 = tested on: NCI-H226
SK-MEL-5 = tested on: SK-MEL-5
RXF 393 = tested on: RXF 393
UACC-62 = tested on: UACC-62
CCRF-CEM = tested on: CCRF-CEM
NCI-H460 = tested on: NCI-H460
Malme-3M = tested on: Malme-3M
SF-295 = tested on: SF-295
LOX IMVI = tested on: LOX IMVI
EKVX = tested on: EKVX
K562 = tested on: K562
SK-OV-3 = tested on: SK-OV-3
COLO 205 = tested on: COLO 205
TK-10 = tested on: TK-10
OVCAR-3 = tested on: OVCAR-3
SW-620 = tested on: SW-620
HOP-92 = tested on: HOP-92

SMILES | GI50 (NCI-H522) | GI50 (SNB-75) | GI50 (OVCAR-5) | GI50 (NCI-H226) | GI50 (SK-MEL-5) | GI50 (RXF 393) | GI50 (UACC-62) | GI50 (CCRF-CEM) | GI50 (NCI-H460) | GI50 (Malme-3M) | GI50 (SF-295) | GI50 (LOX IMVI) | GI50 (EKVX) | GI50 (K562) | GI50 (SK-OV-3) | GI50 (COLO 205) | GI50 (TK-10) | GI50 (OVCAR-3) | GI50 (SW-620) | GI50 (HOP-92)
COc1cccc(C(=O)O[C@H]2[C@@H]3[C@]4(OC(C)=O)CO[C@@H]4C[C@H](O)[C@@]3(C)C(=O)[C@H](OC(C)=O)C3=C(C)[C@@H](OC(=O)[C@H](O)[C@@H](NC(=O)OC(C)(C)C)c4ccco4)C[C@]2(O)C3(C)C)c1 | < 0.00375 µM (active) | < 0.00375 µM (active) | 0.147 µM (active) | 0.36 µM (active) | < 0.00375 µM (active) | 0.00726 µM (active) | 0.0442 µM (active) | < 0.00375 µM (active) | < 0.00375 µM (active) | 1.47 µM (inactive) | < 0.00375 µM (active) | < 0.00375 µM (active) | 0.173 µM (active) | < 0.00375 µM (active) | < 0.00375 µM (active) | < 0.00375 µM (active) | 0.00527 µM (active) | < 0.00375 µM (active) | < 0.00375 µM (active) | 
O=C1c2ccccc2C2(O)Nc3c(ccc4ccccc34)C12O (stereo not drawn) | 95.5 µM (inactive) | > 100 µM (inactive) | > 100 µM (inactive) | > 100 µM (inactive) | 72.8 µM (inactive) | > 100 µM (inactive) | > 100 µM (inactive) | 55.3 µM (inactive) | > 100 µM (inactive) | > 100 µM (inactive) | > 100 µM (inactive) | > 100 µM (inactive) | > 100 µM (inactive) | 61.4 µM (inactive) | > 100 µM (inactive) | > 100 µM (inactive) | > 100 µM (inactive) | 99.5 µM (inactive) | > 100 µM (inactive) | 
Cc1cc(C)nc(NS(=O)(=O)c2ccc(Nc3c4ccc(Cl)cc4nc4c(C(=O)Nc5ccc(S(N)(=O)=O)cc5)cccc34)cc2)n1 | 10.9 µM (inactive) | 20.3 µM (inactive) | 14.7 µM (inactive) |  |  | 13.3 µM (inactive) | 25 µM (inactive) | 25.1 µM (inactive) | 17.1 µM (inactive) | 33 µM (inactive) | 18.2 µM (inactive) | 16 µM (inactive) | 21 µM (inactive) | 25.1 µM (inactive) | 13.9 µM (inactive) |  | 36.3 µM (inactive) | 15.5 µM (inactive) |  | 
O=C(NCCOCCO)c1ccc(O)cc1 | > 100 µM (inactive) |  |  |  | > 100 µM (inactive) | > 100 µM (inactive) | > 100 µM (inactive) | > 100 µM (inactive) | > 100 µM (inactive) |  |  | > 100 µM (inactive) | 20.4 µM (inactive) | > 100 µM (inactive) | > 100 µM (inactive) | > 100 µM (inactive) | > 100 µM (inactive) |  | > 100 µM (inactive) | > 100 µM (inactive)
Cc1nc(C)c(Cc2ccccc2)o1 | > 100 µM (inactive) | 41.4 µM (inactive) | > 100 µM (inactive) | > 100 µM (inactive) | > 100 µM (inactive) | > 100 µM (inactive) | > 100 µM (inactive) | > 100 µM (inactive) | > 100 µM (inactive) | > 100 µM (inactive) | > 100 µM (inactive) | > 100 µM (inactive) | > 100 µM (inactive) | > 100 µM (inactive) | > 100 µM (inactive) | > 100 µM (inactive) | > 100 µM (inactive) | 98.2 µM (inactive) | > 100 µM (inactive) | 
CCN(CC)CC(C(C)=O)C(c1ccccc1)c1c(O)c2ccccc2oc1=O (stereo not drawn) | > 100 µM (inactive) | 42.4 µM (inactive) | > 100 µM (inactive) | > 100 µM (inactive) | > 100 µM (inactive) | > 100 µM (inactive) | > 100 µM (inactive) | > 100 µM (inactive) | > 100 µM (inactive) | > 100 µM (inactive) | > 100 µM (inactive) | > 100 µM (inactive) | > 100 µM (inactive) | > 100 µM (inactive) | > 100 µM (inactive) | > 100 µM (inactive) | > 100 µM (inactive) | > 100 µM (inactive) | > 100 µM (inactive) | 
N/C(=N\O)N/N=C/c1cc(I)cc(I)c1O | 80.5 µM (inactive) |  | 79.1 µM (inactive) | 0.627 µM (active) | 30.6 µM (inactive) | 24.5 µM (inactive) | 31.9 µM (inactive) | 7.89 µM (inactive) | 35.2 µM (inactive) | 19.3 µM (inactive) | 50.4 µM (inactive) | 25.4 µM (inactive) | 58.3 µM (inactive) | 43.2 µM (inactive) | 75.5 µM (inactive) | 27 µM (inactive) | 57.7 µM (inactive) | 2.2 µM (inactive) | > 100 µM (inactive) | 
